Source: patent US11453642B2, “Oxygenated amino- or ammonium-containing sulfonic acid, phosphonic acid and carboxylic acid derivatives and their medical use” (GRI BIO, INC., priority 2011, dated 2022)

Legend:
RBL-2H3 cells = assay: Inhibition of mast cell degranulation (β-hexosaminidase release); format: cell-based; settings: Rattus norvegicus, IgE-sensitized RBL-2H3 cells, 1 h with compound, antigen (DNP-HSA) 15 min
Text: Mast cells are key effector cells involved in allergic and inflammatory diseases, and the Rat Basophilic Leukemia clone 2H3 (RBL-2H3) cell line is a commonly used model of allergen dependent immune modulator release (degranulation) in mast cells. On their surface, they express the high affinity receptor for IgE (FcεRI). Upon binding of antigen-specific IgE to the receptor, cells become sensitized to the IgE specific antigen (allergen). When IgE-sensitized cells then encounter multivalent antigen, the antigen clusters IgE-FcεRI complexes and initiates a signal transduction cascade that leads to degranulation, that is, the release of inflammatory mediators, such as cytokines, eicosanoids, histamine and enzymes. The assay can be used as a screening method to identify immune-modulating compounds, in particular compounds useful in the medical management of allergic and inflammatory diseases and asthma, β-hexosaminidase was previously shown to be released with the same kinetics as histamine (Schwartz et al., J Immunology; 123:1445-1450 (1979)), thus offering a simple means to monitor degranulation. […]
MUG substrate solution, 100 μl, were added to supernatant and lysate samples and plates were incubated 30 min at 37° C. […] Fluorescence was measured at 365 nm excitation and 440 nm emission wavelengths. […]

[1] = test system: collagen type II-induced arthritis (CIA)

Row | SMILES | IC50 (RBL-2H3 cells) | spleen and thymus weights ([1]; mouse, in vivo) | toxic effects ([1]; mouse, in vivo) | cumulative arthritis score and paw thickness ([1]; prophylactic regimen day 0-47, 25 and 100 mg/kg orally twice daily, vs vehicle) | arthritis score and cumulative arthritis score ([1]; therapeutic regimen, 100 mg/kg orally twice daily for 20 days, day 11 to 13 and day 21, vs vehicle)
1 | CCCCCCCCCCCCN(C)CC(O)CS(=O)(=O)O (centres unmarked) [Compound 1c, 2-hydroxy-3-(N-methyldodecylammonio)propanesulfonate] | 4.1 µM | – | – | – | –
2 | CCCCCCCCCCCCCCCCN(C)CC(O)CS(=O)(=O)O (centres unmarked) [Compound 1a, 2-hydroxy-3-(N-methylhexadecylammonio)propane-sulfonate] | – | did not reduce | did not show any toxic effects | reduced | significantly reduced
